Literature values, collected in patent publication US7592331B2, “Macrocyclic factor VIIa inhibitors useful as anticoagulants” (Bristol-Myers Squibb Company, priority 2005, dated 2009).

How the values were obtained:
[1] = system: patients undergoing total knee replacement
[2] = system: patients undergoing coronary angioplasty
[3] = system: patients with acute coronary syndromes

## recombinant nematode anticoagulant protein c2 [rNAPc2]
[1]
  deep vein thrombosis: prevents deep vein thrombosis
[2]
  systemic thrombin generation: reduces systemic thrombin generation
[3]
  magnitude and duration of ischemic events: reduces magnitude and duration of ischemic events
